According to ChEMBL document CHEMBL1156449, “The nucleoside analog sangivamycin induces apoptotic cell death in breast carcinoma MCF7/adriamycin-resistant cells via protein kinase Cdelta and JNK activation” (J Biol Chem, 2007):
Activity calls are given as the source filed them. The rule behind the calls is not given here.

Experiments:
MCF/ADR [1] = test: Decrease in p53 accumulation in human multidrug resistant MCF/ADR cells at 0.3 uM after 72 hrs by immunoblot analysis; format: functional, cell-based
MCF/ADR [2] = test: Blockade of apoptosis induction in human multidrug resistant MCF/ADR cells at 0.3 uM after 48 hrs in presence of rottlerin; format: functional, cell-based
[3] = biological target: Transcription factor Jun (Homo sapiens) (UniProt P05412); test: Induction of c-Jun phosphorylation in human drug-sensitive MCF/WT cells at 0.3 uM; format: cell-based
Chain of Transcription factor Jun (Homo sapiens) (P05412 whole entry): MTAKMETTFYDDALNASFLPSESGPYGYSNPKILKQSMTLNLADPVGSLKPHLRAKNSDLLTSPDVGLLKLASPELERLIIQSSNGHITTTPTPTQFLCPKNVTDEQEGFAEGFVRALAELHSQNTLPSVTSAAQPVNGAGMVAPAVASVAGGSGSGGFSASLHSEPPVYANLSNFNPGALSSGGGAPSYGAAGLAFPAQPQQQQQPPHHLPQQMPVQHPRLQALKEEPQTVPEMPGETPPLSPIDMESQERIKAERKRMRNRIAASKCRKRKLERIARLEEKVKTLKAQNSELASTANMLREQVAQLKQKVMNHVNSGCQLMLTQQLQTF

MCF/ADR [4] = test: Increase in Bcl-x/l levels in human multidrug resistant MCF/ADR cells at 0.3 uM by immunoblot analysis; format: functional, cell-based
MCF/ADR [5] = test: Reduction in induction of apoptosis in SP600125 pretreated human multidrug resistant MCF/ADR cells assessed as reduction of cleavage of lamin A at 0.3 uM after 48 hrs by immunoblot analysis; format: functional, cell-based
[6] = Inhibition of PKC
MCF/WT [7] = test: Induction of apoptosis in human drug sensitive MCF/WT cells assessed as propidium iodide binding to phosphatidylserine at 0.3 uM after 6 hrs; format: functional, cell-based
MCF/ADR [8] = test: Reduction of […] cleavage in human multidrug resistant MCF/ADR cells transfected with c-Jun siRNA at 0.3 uM after 48 hrs by immunoblot analysis; format: functional, cell-based
MCF/WT [9] = test: Cytostatic effect in human drug sensitive MCF/WT cells assessed as slight increase in number of viable cells at 0.1 uM after 1 hr measured after 72 hrs in absence of drug by MTT colorimetric assay; format: functional, cell-based
MDA-MB-468 = test: Induction of apoptosis in human multidrug resistant MDA-MB-468 cells assessed as accumulation of PARP at 0.3 uM after 48 hrs by immunoblot analysis; format: functional, cell-based
MCF/WT [10] = test: Induction of JNK p46 isoform phosphorylation in human drug-sensitive MCF/WT cells at 0.3 uM after 48 hrs by immunoblot analysis; format: cell-based
[11] = biological target: Transcription factor Jun (Homo sapiens) (UniProt P05412); test: Induction of c-Jun serine 63 phosphorylation in human multidrug resistant MCF/ADR cells at 0.3 uM; format: cell-based
[12] = Cell cycle arrest in human multidrug resistant MCF/ADR cells assessed as accumulation at G0/G1 phase at 0.3 uM after 72 hrs by propidium fluorescence flow cytometry; format: functional, cell-based
MCF/WT [13] = test: Induction of apoptosis in human drug-sensitive MCF/WT cells assessed as cleavage of lamin A at 0.3 uM by immunoblot analysis; format: functional, cell-based
MCF/WT [14] = test: Increase in Bcl-x/s levels in human drug-sensitive MCF/WT cells at 0.3 uM by immunoblot analysis; format: functional, cell-based
MCF/ADR [15] = test: Increase in Bax levels in human multidrug resistant MCF/ADR cells at 0.3 uM by immunoblot analysis; format: functional, cell-based
MCF/ADR [16] = test: Increase in Bcl-x/s levels in human multidrug resistant MCF/ADR cells at 0.3 uM by immunoblot analysis; format: functional, cell-based
MCF/ADR [17] = test: Cytocidal effect in human multidrug resistant MCF/ADR cells assessed as decrease in number of viable cells at 0.1 uM after 72 hrs by MTT colorimetric assay; format: functional, cell-based
MCF/ADR [18] = test: Increase in p21CIP accumulation in human multidrug resistant MCF/ADR cells at 0.3 uM after 48 hrs by immunoblot analysis; format: functional, cell-based
[19] = Cell cycle arrest in human drug-sensitive MCF/WT cells assessed as accumulation at G2/M phase at 0.3 uM after 48 hrs by propidium fluorescence flow cytometry; format: functional, cell-based
[20] = biological target: Transcription factor Jun (Homo sapiens) (UniProt P05412); test: Reduction in induction of non phosphorylated form of c-Jun in SP600125 pretreated human multidrug resistant MCF/ADR cells at 0.3 uM after 48 hrs by immunoblot analysis; format: cell-based
MCF/ADR [21] = test: Inhibition of induction of apoptosis in human multidrug resistant MCF/ADR cells assessed as inhibition of cleavage of PARP at 0.3 uM after 48 hrs by immunoblot analysis in presence of caspase 9-specific inhibitor; format: functional, cell-based
MCF/ADR [22] = test: Inhibition of induction of apoptosis in human multidrug resistant MCF/ADR cells assessed as inhibition of cleavage of PARP at 0.3 uM after 48 hrs by immunoblot analysis in presence of pan-specific inhibitor; format: functional, cell-based
[23] = Effect on cell morphology in human multidrug resistant MCF/ADR cells assessed as floating cells with intact plasma membrane at 0.3 uM after 72 hrs by trypan blue dye exclusion test; format: functional
MCF/ADR [24] = test: Reduction in induction of apoptosis in human multidrug resistant MCF/ADR cells assessed as suppression of lamin A cleavage at 0.3 uM after 48 hrs by immunoblot analysis in presence of rottlerin; format: functional, cell-based
MCF/ADR [25] = test: Induction of c-Jun expression in human multidrug resistant MCF/ADR cells at 0.3 uM; format: functional, cell-based
[26] = biological target: Transcription factor Jun (Homo sapiens) (UniProt P05412); test: Reduction in induction of c-Jun phosphorylation in human multidrug resistant MCF/ADR cells transfected with c-Jun siRNA at 0.3 uM after 48 hrs by immunoblot analysis; format: cell-based
MCF/ADR [27] = test: Cytocidal effect in human multidrug resistant MCF/ADR cells assessed as decrease in number of viable cells at 30 nM after 6 days by MTT colorimetric assay; format: functional, cell-based
[28] = Cell cycle arrest in human multidrug resistant MCF/ADR cells assessed as accumulation at G2/M phase at 0.3 uM after 24 hrs by propidium fluorescence flow cytometry; format: functional, cell-based
[29] = Cell cycle arrest in human drug-sensitive MCF/WT cells assessed as accumulation at sub G0/G1 phase at 0.3 uM after 24 hrs by propidium fluorescence flow cytometry; format: functional, cell-based
[30] = Reduction in induction of c-Jun expression in human multidrug resistant MCF/ADR cells at 0.3 uM after 48 hrs by immunoblot analysis in presence of rottlerin; format: functional, cell-based
[31] = Cell cycle arrest in human multidrug resistant MCF/ADR cells assessed as accumulation at G0/G1 phase at 0.3 uM after 48 hrs by propidium fluorescence flow cytometry; format: functional, cell-based
[32] = Cell cycle arrest in human multidrug resistant MCF/ADR cells assessed as accumulation at S phase at 0.3 uM after 48 hrs by propidium fluorescence flow cytometry; format: functional, cell-based
[33] = biological target: Bcl-2-like protein 1 (Homo sapiens) (UniProt Q07817); test: Inhibition of induction of Bcl-x/s phosphorylation in human multidrug resistant MCF/ADR cells at 0.3 uM after 48 hrs in presence of SP600125; format: functional, cell-based
Chain of Bcl-2-like protein 1 (Homo sapiens) (Q07817 whole entry): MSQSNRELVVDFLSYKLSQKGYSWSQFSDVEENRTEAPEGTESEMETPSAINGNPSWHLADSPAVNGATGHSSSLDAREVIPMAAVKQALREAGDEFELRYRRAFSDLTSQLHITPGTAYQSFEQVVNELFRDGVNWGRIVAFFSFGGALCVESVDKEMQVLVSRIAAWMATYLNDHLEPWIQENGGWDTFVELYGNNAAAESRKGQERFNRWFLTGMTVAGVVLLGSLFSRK

[34] = biological target: Transcription factor Jun (Homo sapiens) (UniProt P05412); test: Induction of c-Jun serine 73 phosphorylation in human multidrug resistant MCF/ADR cells at 0.3 uM; format: cell-based
MCF/ADR [35] = test: Induction of apoptosis in human multidrug resistant MCF/ADR cells assessed as accumulation of PARP at 0.3 uM after 72 hrs by immunoblot analysis; format: functional, cell-based
[36] = Cell cycle arrest in human multidrug resistant MCF/ADR cells assessed as accumulation at sub G0/G1 phase at 0.3 uM after 72 hrs by propidium fluorescence flow cytometry; format: functional, cell-based
MCF/ADR [37] = test: Induction of apoptosis in human multidrug resistant MCF/ADR cells assessed as annexin V binding to phosphatidylserine at 0.3 uM after 6 hrs; format: functional, cell-based
[38] = biological target: Transcription factor Jun (Homo sapiens) (UniProt P05412); test: Reduction in induction of c-Jun phosphorylation in human multidrug resistant MCF/ADR cells at 0.3 uM after 48 hrs by immunoblot analysis in presence of rottlerin; format: cell-based

For NC(=O)c1cn([C@@H]2O[C@H](CO)[C@@H](O)[C@H]2O)c2ncnc(N)c12 [SANGIVAMYCIN], the Activity (MCF/ADR [1]) was “Active”, the Activity (MCF/ADR [2]) was “Active” and the Activity [3] was “inactive”. For the same compound, the Activity (MCF/ADR [4]) was “Active”, the Activity (MCF/ADR [5]) was “Active” and the Ki [6] was 10 µM. For the same compound, the Activity (MCF/WT [7]) was “inactive”, the Activity (MCF/ADR [8]) was “inactive” and the Activity (MCF/WT [9]) was “Active”. For the same compound, the Activity (MDA-MB-468) was “Active”, the Activity (MCF/WT [10]) was “inactive” and the Activity [11] was “Active”. For the same compound, the Activity [12] was 17%, the Activity (MCF/WT [13]) was “inactive” and the Activity (MCF/WT [14]) was “Active”. The Activity (MCF/ADR [15]) was “Active”, the Activity (MCF/ADR [16]) was “Active” and the Activity (MCF/ADR [17]) was “Active”. The Activity (MCF/ADR [18]) was “inactive”, the Activity [19] was 27% and the Activity [20] was “Active”. The Activity (MCF/ADR [21]) was “Active”, the Activity (MCF/ADR [22]) was “Active” and the Activity [23] was 95%. For the same compound, the Activity (MCF/ADR [24]) was “Active”, the Activity (MCF/ADR [25]) was “Active” and the Activity [26] was “Active”. The Activity (MCF/ADR [27]) was “Active”, the Activity [28] was 33% and the Activity [29] was 1%. For the same compound, the Activity [30] was “Active”, the Activity [31] was 20% and the Activity [32] was 23%. For the same compound, the Activity [33] was “Active”, the Activity [34] was “Active” and the Activity (MCF/ADR [35]) was “Active”. For the same compound, the Activity [36] was 50%, the Activity (MCF/ADR [37]) was “Active” and the Activity [38] was “Active”.
